Experimental data as given in ChEMBL document CHEMBL1697731, “Cheminformatics analysis of assertions mined from literature that describe drug-induced liver injury in different species” (Chem Res Toxicol, 2010).

Tests used:
[1] = test system: Hepatotoxicity; assay: Literature-mined compound from Fourches et al multi-species drug-induced liver injury (DILI) dataset, effect in rodents; details: rodentia
[2] = test system: Hepatotoxicity; assay: Literature-mined compound from Fourches et al multi-species drug-induced liver injury (DILI) dataset, effect in non-rodents
[3] = test system: Hepatotoxicity; assay: Literature-mined compound from Fourches et al multi-species drug-induced liver injury (DILI) dataset, effect in humans; details: human

SMILES | Hepatotoxicity ([1]; Liver) | Hepatotoxicity ([2]; Liver) | Hepatotoxicity ([3]; Liver) | Hepatotoxicity [1] | Hepatotoxicity [2] | Hepatotoxicity [3]
Cl.Nc1c2c(nc3ccccc13)CCCC2 [TACRINE HYDROCHLORIDE] | drug-induced liver injury reported | no drug-induced liver injury reported | no drug-induced liver injury reported |  |  | 
CC[C@H]1OC(=O)[C@H](C)[C@@H](O[C@H]2C[C@@](C)(OC)[C@@H](O)[C@H](C)O2)[C@H](C)[C@@H](O[C@@H]2O[C@H](C)C[C@H](N(C)C)[C@H]2O)[C@](C)(O)C[C@@H](C)/C(=N\OCOCCOC)[C@H](C)[C@@H](O)[C@]1(C)O [ROXITHROMYCIN] |  |  |  | drug-induced liver injury reported | no drug-induced liver injury reported | drug-induced liver injury reported
CN(C)CCCN1c2ccccc2Sc2ccc(Cl)cc21 [CHLORPROMAZINE] |  |  |  | drug-induced liver injury reported | drug-induced liver injury reported | drug-induced liver injury reported
CCC(c1ccccc1)c1c(O)c2ccccc2oc1=O (centres undefined) [PHENPROCOUMON] |  |  |  | no drug-induced liver injury reported | no drug-induced liver injury reported | drug-induced liver injury reported
COCCOC(=O)C1=C(C)NC(C)=C(C(=O)OC(C)C)C1c1cccc([N+](=O)[O-])c1 (centres undefined) [NIMODIPINE] |  |  |  | drug-induced liver injury reported | no drug-induced liver injury reported | drug-induced liver injury reported
CCOC(=O)CCC(=O)O[C@H]1[C@H](O[C@@H]2[C@@H](C)[C@H](O[C@H]3C[C@@](C)(OC)[C@@H](O)[C@H](C)O3)[C@@H](C)C(=O)O[C@H](CC)[C@@](C)(O)[C@H](O)[C@@H](C)C(=O)[C@H](C)C[C@@]2(C)O)O[C@H](C)C[C@@H]1N(C)C [ERYTHROMYCIN ETHYLSUCCINATE] |  |  |  | no drug-induced liver injury reported | no drug-induced liver injury reported | drug-induced liver injury reported
CO[C@@H]1[C@H](OC(=O)NC(=O)CCl)CC[C@]2(CO2)[C@H]1[C@@]1(C)O[C@@H]1CC=C(C)C [O-CHLOROACETYLCARBAMOYLFUMAGILLOL] |  |  |  | drug-induced liver injury reported | drug-induced liver injury reported | no drug-induced liver injury reported
C[Se]CC[C@H](N)C(=O)O [SELENOMETHIONINE] |  |  |  | drug-induced liver injury reported | drug-induced liver injury reported | no drug-induced liver injury reported
C[N+](C)(C)CC(O)CC(=O)[O-] (centres undefined) [CARNITINE] |  |  |  | drug-induced liver injury reported | drug-induced liver injury reported | drug-induced liver injury reported
O=[N+]([O-])O[C@H]1CO[C@H]2[C@@H]1OC[C@H]2O[N+](=O)[O-] [ISOSORBIDE DINITRATE] |  |  |  | drug-induced liver injury reported | no drug-induced liver injury reported | drug-induced liver injury reported
O=C(O)C[C@H](O)C[C@H](O)/C=C/c1c(C2CC2)nc2ccccc2c1-c1ccc(F)cc1 [PITAVASTATIN] |  |  |  | drug-induced liver injury reported | no drug-induced liver injury reported | drug-induced liver injury reported
C[C@H](NC(=O)C(=O)Nc1ccccc1C(C)(C)C)C(=O)N[C@@H](CC(=O)O)C(=O)COc1c(F)c(F)cc(F)c1F |  |  |  | drug-induced liver injury reported | no drug-induced liver injury reported | no drug-induced liver injury reported
COc1cccc(C2(O)CCCCC2CN(C)C)c1 (centres undefined) [TRAMADOL] |  |  |  | drug-induced liver injury reported | no drug-induced liver injury reported | drug-induced liver injury reported
